Source: patent US20060193844A1, “Methods for enzyme inhibition” (Proteolix, Inc., priority 2005, published 2006)

How the values were obtained:
HT-29 cell line = assay: Human xenograft model, tumor volume; type: in vivo; settings: dose equivalent to the MTD for this strain of mouse, clinical schedule; FIG. 4
Experimental: In a human xenograft model using an HT-29 cell line, proteasome inhibitors were administered using the indicated regimens.

[1] = twice weekly for two weeks (days 1, 4, 8 and 11) followed by a ten-day rest period; cited from earlier work
[2] = female rats; daily administration of doses that result in 80% inhibition of the proteasome; cited from earlier work
[3] = monkeys, cited from earlier work

## CC(C)C[C@H](NC(=O)[C@H](Cc1ccccc1)NC(=O)c1cnccn1)B(O)O [bortezomib]
HT-29 cell line
  anti-tumor response: unable to induce an anti-tumor response
[1]
  maximum tolerated dose (MTD): 1.3 mg/m^2/dose
[2]
  lethality: 67%
[3]
  highest daily dose without severe toxicity, fold less than the MTD on the clinical dosing schedule: 20 fold
[3]; daily administered
  highest dose without severe toxicity: 0.5 mg/m^2
